# Data as given in patent US8952024B2, “Herbicidal pyrimidone derivatives” (E I du Pont de Nemours and Company, priority 2009, dated 2015).
# How the values were obtained:
# Type in all cases: in vivo
# [1] = tested on: water seeded rice seedlings (Oryza sativa cv. ‘Japonica—M202’); assay: Test E flooded paddy rice and weeds; conditions: applied to paddy water, 21 days, scale 0 to 100
# Description: (§1) Three plastic pots (ca. 16-cm diameter) for each application were partially filled with sterilized Tama silt loam soil comprising a 35:50:15 ratio of sand, silt and clay and 2.6% organic matter. Separate plantings for each of the three pots were as follows. Seeds from the U.S. of ducksalad (Heteranthera limosa), sedge (smallflower umbrella sedge, Cyperus difformis), ricefield bulrush (Scirpus mucronatus) and redstem (purple redstem, Ammannia coccinea), were planted into one 16-cm pot for each rate. Seeds from the U.S. of flatsedge (rice flatsedge, Cyperus iria), sprangletop (bearded (i.e. Brdd.) sprangletop, Leptochloa fascicularis), one stand of 9 or 10 water seeded rice seedlings (Oryza sativa cv. ‘Japonica—M202’), and two stands of 3 or 4 transplanted rice seedlings (Oryza sativa cv. ‘Japonica—M202’) were planted into one 16-cm pot for each rate. Seeds from the U.S. of barnyardgrass (Echinochloa crus-galli), late watergrass (Echinochloa oryzicola), early watergrass (Echinochloa oryzoides) and junglerice (Echinochloa colona) were planted into one 16-cm pot for each rate. Plantings were sequential so that crop and weed species were at the 2.0 to 2.5-leaf stage at time of treatment.
# (§2) Potted plants were grown in a greenhouse with day/night temperature settings of 30/27° C., and supplemental balanced lighting was provided to maintain a 16-hour photoperiod. Test pots were maintained in the greenhouse until test completion.
# (§3) At time of treatment, test pots were flooded to 3 cm above the soil surface, treated by application of test compounds directly to the paddy water, and then maintained at that water depth for the duration of the test. Effects of treatments on rice and weeds were visually evaluated by comparison to untreated controls after 21 days. Plant response ratings, summarized in Table E, are based on a scale of 0 to 100 where 0 is no effect and 100 is complete control. A dash (-) response means no test result.
# [2] = tested on: barnyardgrass (Echinochloa crus-galli); assay: Test E flooded paddy rice and weeds; conditions: applied to paddy water, 21 days
# Description: as §1, §2, §3
# [3] = tested on: sedge (smallflower umbrella sedge, Cyperus difformis); assay: Test E flooded paddy rice and weeds; conditions: applied to paddy water, 21 days, scale 0 to 100
# Description: as §1, §2, §3
# [4] = tested on: ricefield bulrush (Scirpus mucronatus); assay: Test E flooded paddy rice and weeds; conditions: applied to paddy water, 21 days, scale 0 to 100
# Description: as §1, §2, §3
# [5] = tested on: flatsedge (rice flatsedge, Cyperus iria); assay: Test E flooded paddy rice and weeds; conditions: applied to paddy water, 21 days, scale 0 to 100
# Description: as §1, §2, §3
# [6] = tested on: transplanted rice seedlings (Oryza sativa cv. ‘Japonica—M202’); assay: Test E flooded paddy rice and weeds; conditions: applied to paddy water, 21 days, scale 0 to 100
# Description: as §1, §2, §3
# [7] = tested on: late watergrass (Echinochloa oryzicola); assay: Test E flooded paddy rice and weeds; conditions: applied to paddy water, 21 days, scale 0 to 100
# Description: as §1, §2, §3
# [8] = tested on: early watergrass (Echinochloa oryzoides); assay: Test E flooded paddy rice and weeds; conditions: applied to paddy water, 21 days, scale 0 to 100
# Description: as §1, §2, §3
# [9] = tested on: redstem (purple redstem, Ammannia coccinea); assay: Test E flooded paddy rice and weeds; conditions: applied to paddy water, 21 days, scale 0 to 100
# Description: as §1, §2, §3
# [10] = tested on: naked crabgrass (Digitaria nuda); assay: Test D pre-/postemergence plant response
# Method in brief: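 Scores (0 no effect, 100 complete control) reflect visual assessment against untreated plants after 14 to 21 days. Treatments were pre- and postemergence sprays in solvent with surfactant.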
SMILES,"Plant response rating, Rice, Water Seeded, Flood ([1]; 125 g ai/ha)","Plant response rating, Rice, Water Seeded, Flood ([1]; 250 g ai/ha)","Plant response rating, Barnyardgrass, Flood ([2]; 125 g ai/ha, scale 0 to 100)","Plant response rating, Barnyardgrass, Flood ([2]; 250 g ai/ha, scale 0 to 100)","Plant response rating, Sedge, Umbrella, Flood ([3]; 125 g ai/ha)","Plant response rating, Sedge, Umbrella, Flood ([3]; 250 g ai/ha)","Plant response rating, Bulrush, Ricefield, Flood ([4]; 125 g ai/ha)","Plant response rating, Bulrush, Ricefield, Flood ([4]; 250 g ai/ha)","Plant response rating, Flatsedge, Rice, Flood ([5]; 125 g ai/ha)","Plant response rating, Flatsedge, Rice, Flood ([5]; 250 g ai/ha)","Plant response rating, Rice, Transplanted, Flood ([6]; 125 g ai/ha)","Plant response rating, Rice, Transplanted, Flood ([6]; 250 g ai/ha)","Plant response rating, Watergrass, Late, Flood ([7]; 125 g ai/ha)","Plant response rating, Watergrass, Late, Flood ([7]; 250 g ai/ha)","Plant response rating, Watergrass, Early, Flood ([8]; 125 g ai/ha)","Plant response rating, Watergrass, Early, Flood ([8]; 250 g ai/ha)","Plant response rating, Redstem, Flood ([9]; 125 g ai/ha)","Plant response rating, Redstem, Flood ([9]; 250 g ai/ha)",other results
"COc1ccc(-n2c(-c3ccccc3)ncc(C(=O)C3=C(O)CCCC3=O)c2=O)cc1 [Compound 4, 5-[(2-hydroxy-6-oxo-cyclohexen-1-yl)carbonyl]-3-(4-methoxyphenyl)-2-phenyl-4(3H)-pyrimidinone]",10,20,0,60,90,95,40,80,0,40,0,0,0,15,0,60,80,80,"Plant response rating, Rice, Water Seeded, Flood ([1]; 500 g ai/ha): 50; Plant response rating, Barnyardgrass, Flood ([2]; 500 g ai/ha, scale 0 to 100 (0 no effect, 100 complete control)): 60; Plant response rating, Sedge, Umbrella, Flood ([3]; 500 g ai/ha): 100; Plant response rating, Bulrush, Ricefield, Flood ([4]; 500 g ai/ha): 80; Plant response rating, Flatsedge, Rice, Flood ([5]; 500 g ai/ha): 90; Plant response rating, Rice, Transplanted, Flood ([6]; 500 g ai/ha): 15; Plant response rating, Watergrass, Late, Flood ([7]; 500 g ai/ha): 60; Plant response rating, Watergrass, Early, Flood ([8]; 500 g ai/ha): 65; Plant response rating, Redstem, Flood ([9]; 500 g ai/ha): 85"
Cc1ccc(-n2c(-c3ccccc3)ncc(C(=O)C3=C(O)CCCC3=O)c2=O)c(C)c1 [Compound 28],65,85,0,0,90,100,35,65,0,45,15,15,0,0,0,20,50,90,"Plant response rating, Rice, Water Seeded, Flood ([1]; 32 g ai/ha): 45; Plant response rating, Rice, Water Seeded, Flood ([1]; 64 g ai/ha): 60; Plant response rating, Barnyardgrass, Flood ([2]; 32 g ai/ha, scale 0 to 100): 0; Plant response rating, Barnyardgrass, Flood ([2]; 64 g ai/ha, scale 0 to 100): 0; Plant response rating, Sedge, Umbrella, Flood ([3]; 32 g ai/ha): 0; Plant response rating, Sedge, Umbrella, Flood ([3]; 64 g ai/ha): 85; Plant response rating, Bulrush, Ricefield, Flood ([4]; 32 g ai/ha): 20; Plant response rating, Bulrush, Ricefield, Flood ([4]; 64 g ai/ha): 30; Plant response rating, Flatsedge, Rice, Flood ([5]; 32 g ai/ha): 0; Plant response rating, Flatsedge, Rice, Flood ([5]; 64 g ai/ha): 0; Plant response rating, Rice, Transplanted, Flood ([6]; 32 g ai/ha): 0; Plant response rating, Rice, Transplanted, Flood ([6]; 64 g ai/ha): 15; Plant response rating, Watergrass, Late, Flood ([7]; 32 g ai/ha): 0; Plant response rating, Watergrass, Late, Flood ([7]; 64 g ai/ha): 0; Plant response rating, Watergrass, Early, Flood ([8]; 32 g ai/ha): 0; Plant response rating, Watergrass, Early, Flood ([8]; 64 g ai/ha): 0; Plant response rating, Redstem, Flood ([9]; 32 g ai/ha): 0; Plant response rating, Redstem, Flood ([9]; 64 g ai/ha): 40"
O=C1CCCC(O)=C1C(=O)c1cnc(-c2ccccc2)n(CC2CCCO2)c1=O (centres unmarked) [Compound 59],–,–,–,–,–,–,–,–,–,–,–,–,–,–,–,–,–,–,"Plant response rating, Crabgrass, Naked ([10]; Postemergence, 31 g ai/ha, scale 0 to 100): 30; Plant response rating, Crabgrass, Naked ([10]; Postemergence, 62 g ai/ha, scale 0 to 100 (0 no effect, 100 complete control)): 50; Plant response rating, Crabgrass, Naked ([10]; Postemergence, 125 g ai/ha, scale 0 to 100 (0 no effect, 100 complete control)): 70; Plant response rating, Crabgrass, Naked ([10]; Postemergence, 16 g ai/ha, scale 0 to 100): 20; Plant response rating, Crabgrass, Naked ([10]; Preemergence, 16 g ai/ha, scale 0 to 100, 0 no effect, 100 complete control): 0; Plant response rating, Crabgrass, Naked ([10]; Preemergence, 31 g ai/ha, scale 0 to 100 (0 no effect, 100 complete control)): 0; Plant response rating, Crabgrass, Naked ([10]; Preemergence, 62 g ai/ha, scale 0 to 100): 65; Plant response rating, Crabgrass, Naked ([10]; Preemergence, 125 g ai/ha, scale 0 to 100): 95"
